Tests used:
[1] = target: Sigma non-opioid intracellular receptor 1 (Cavia porcellus) (UniProt Q60492); assay: Displacement of [3H]-(+)-pentazocine from sigma1-type […] receptor in guinea pig cortex membranes at 1 uM after 120 mins by solid scintillation counting; format: cell membranes
[2] = target: T1, Kappa-type opioid receptor (Homo sapiens, UniProt P41145); assay: Agonist activity at recombinant human kappa-type opioid receptor expressed in HEK293 cells at 1 uM after 30 mins by [35S]GTPgammaS binding assay; format: functional, cell-based
Sus scrofa = organism: Sus scrofa; assay: Displacement of [3H]-(+)-MK 801 from PCP binding site of NMDA receptor in pig brain cortex membranes at 10 uM after 120 mins by solid scintillation counting; format: cell membranes
Rattus norvegicus [3] = organism: Rattus norvegicus; assay: Displacement of [3H]-DTG from sigma 2 receptor in rat liver membranes at 1 uM after 120 mins by scintillation counting; format: cell membranes; conditions: Membrane
[4] = target: Mu-type opioid receptor (Cavia porcellus) (UniProt P97266); assay: Displacement of [3H]DAMGO from mu-type opioid receptor in guinea pig brain membranes at 1 uM after 120 mins by solid scintillation counting; format: cell membranes; conditions: Membrane
[5] = Ratio of drug level in brain to plasma in Wistar Han rat at 5 mg/kg, iv after 1 hr; format: ADME, organism-based; conditions: read-out: BPR
Rattus norvegicus [6] = assay: Toxicity in Wistar Han rat assessed as assessed as clinical signs changes at 5 mg/kg, iv after 1 hr; format: organism-based; conditions: in vivo
[7] = Plasma concentration in Wistar Han rat at 5 mg/kg, iv measured 0.25 hrs post compound administration; format: ADME, organism-based
[8] = Plasma concentration in Wistar Han rat at 5 mg/kg, iv measured 1 hr post compound administration; format: ADME, organism-based
[9] = Drug level in Wistar Han rat brain at 5 mg/kg, iv measured 1 hr post compound administration; format: ADME, organism-based; conditions: read-out: Drug uptake
Mus musculus [10] = assay: Antiinflammatory activity in arachidonic acid-induced ear dermatitis ICR mouse model assessed as reduction in ear swelling at 0.3 mg administered twice tropically 30 mins prior and 15 mins after arachidonic acid addition measured 60 mins post arachidonic acid challenge relative to control; format: functional
Mus musculus [11] = assay: Antiinflammatory activity in arachidonic acid-induced ear dermatitis ICR mouse model assessed as reduction in ear swelling at 0.1 mg administered twice tropically 30 mins prior and 15 mins after arachidonic acid addition measured 60 mins post arachidonic acid challenge relative to control; format: functional
Mus musculus [12] = assay: Antiinflammatory activity in arachidonic acid-induced ear dermatitis ICR mouse model assessed as reduction in ear swelling at 3 mg administered twice tropically 30 mins prior and 15 mins after arachidonic acid addition measured 60 mins post arachidonic acid challenge relative to control; format: functional
[13] = Displacement of [3H]DPDPE from delta-type opioid receptor in guinea pig brain membranes after 120 mins by solid scintillation counting; format: cell membranes, Cavia porcellus, Membrane
[14] = target: T1, Kappa-type opioid receptor; assay: Agonist activity at recombinant human kappa-type opioid receptor expressed in HEK293 cells after 30 mins by [35S]GTPgammaS binding assay; format: functional, cell-based
Mu-type opioid receptor = Mu-type opioid receptor (Cavia porcellus, UniProt P97266); assay: Displacement of [3H]DAMGO from mu-type opioid receptor in guinea pig brain membranes after 120 mins by solid scintillation counting; format: cell membranes, Membrane
[15] = target: Kappa-type opioid receptor (Cavia porcellus, UniProt P41144); assay: Displacement of [3H]U-69,593 from kappa-type opioid receptor in guinea pig brain membranes after 120 mins by solid scintillation counting; format: cell membranes, Membrane
Mus musculus [16] = assay: Antiinflammatory activity in arachidonic acid-induced ear dermatitis ICR mouse model assessed as reduction in ear swelling at 1 mg administered twice tropically 30 mins prior and 15 mins after arachidonic acid addition measured 60 mins post arachidonic acid challenge relative to control; format: functional

Mu-type opioid receptor (Cavia porcellus), sequence (P97266 whole entry): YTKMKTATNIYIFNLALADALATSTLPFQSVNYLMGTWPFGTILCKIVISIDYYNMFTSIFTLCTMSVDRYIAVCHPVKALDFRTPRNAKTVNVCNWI
Mu-type opioid receptor, sequence (P97266 whole entry): as above
T1 sequence (P41145 whole entry): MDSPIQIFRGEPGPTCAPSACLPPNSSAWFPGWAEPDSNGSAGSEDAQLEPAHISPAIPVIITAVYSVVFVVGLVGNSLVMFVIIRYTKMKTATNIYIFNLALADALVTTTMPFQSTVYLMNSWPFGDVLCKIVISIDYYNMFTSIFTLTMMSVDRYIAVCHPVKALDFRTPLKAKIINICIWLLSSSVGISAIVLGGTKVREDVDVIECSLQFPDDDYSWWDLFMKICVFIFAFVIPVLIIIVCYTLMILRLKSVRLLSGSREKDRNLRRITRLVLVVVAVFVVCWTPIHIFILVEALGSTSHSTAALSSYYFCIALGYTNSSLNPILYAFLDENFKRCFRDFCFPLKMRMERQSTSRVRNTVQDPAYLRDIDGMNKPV
Sigma non-opioid intracellular receptor 1 (Cavia porcellus), sequence (Q60492 whole entry): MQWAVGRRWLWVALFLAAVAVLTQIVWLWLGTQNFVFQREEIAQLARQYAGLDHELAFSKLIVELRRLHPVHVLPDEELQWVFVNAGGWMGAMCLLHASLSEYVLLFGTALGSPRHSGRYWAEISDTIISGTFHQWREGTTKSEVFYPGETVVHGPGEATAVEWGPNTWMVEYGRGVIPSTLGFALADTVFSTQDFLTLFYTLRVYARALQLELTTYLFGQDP
Kappa-type opioid receptor (Cavia porcellus, UniProt P41144), sequence (P41144 whole entry): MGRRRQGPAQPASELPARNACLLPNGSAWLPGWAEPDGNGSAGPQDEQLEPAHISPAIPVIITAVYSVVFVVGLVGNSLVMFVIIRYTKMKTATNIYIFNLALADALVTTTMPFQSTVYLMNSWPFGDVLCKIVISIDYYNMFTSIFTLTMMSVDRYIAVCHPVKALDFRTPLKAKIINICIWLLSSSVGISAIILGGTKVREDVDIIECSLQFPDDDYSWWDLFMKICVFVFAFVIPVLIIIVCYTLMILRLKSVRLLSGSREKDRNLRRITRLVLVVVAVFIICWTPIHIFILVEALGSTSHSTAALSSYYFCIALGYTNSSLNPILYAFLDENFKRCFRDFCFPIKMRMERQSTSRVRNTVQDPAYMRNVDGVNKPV

| SMILES | inhibition [1] [%] | Activity [2] [%] | inhibition (Sus scrofa) [%] | inhibition (Rattus norvegicus [3]) [%] | Ki [13] [nM] | EC50 [14] [nM] | Ki [15] [nM] | also measured |
| --- | --- | --- | --- | --- | --- | --- | --- | --- |
| COC(=O)CN1CCN(C(=O)Cc2ccc(Cl)c(Cl)c2)[C@@H]2[C@@H](N3CCCC3)CCC[C@@H]21 | 0 | 111 | 13 | 0 | – | – | – | – |
| COC(=O)N1CCN(C(=O)Cc2ccc(Cl)c(Cl)c2)[C@@H]2[C@@H](N3CC[C@@H](O)C3)CCC[C@@H]21 | 0 | 109 | 55 | 13 | – | – | – | inhibition [4]: 5% |
| COC(=O)N1CCN(C(=O)Cc2ccc(F)c(F)c2)[C@@H]2[C@@H](N3CC[C@H](O)C3)CCC[C@@H]21.Cl | – | – | – | – | – | – | – | Kp at 1 h [5]: 0.12; Activity (Rattus norvegicus [6]): Non-Toxic; concentration at 0.25 h [7]: 1410 ng/mL; concentration at 1 h [8]: 392 ng/mL; concentration at 1 h [9]: 46.4 ng/g |
| COC(=O)N1CCN(C(=O)Cc2cccc(Cl)c2)[C@@H]2[C@@H](N3CC[C@H](O)C3)CCC[C@@H]21 | – | – | – | – | 1120 | 15 | 1.7 | inhibition (INH) (Mus musculus [10]): 12%; inhibition (INH) (Mus musculus [11]): -15%; inhibition (INH) (Mus musculus [12]): 55%; Ki (Mu-type opioid receptor): 512 nM; inhibition (INH) (Mus musculus [16]): 44% |
| COC(=O)N1CCN(C(=O)Cc2ccc(Cl)c(Cl)c2)[C@@H]2[C@@H](N(C)C)CCC[C@@H]21 | – | – | – | – | 7.9 | 1 | 0.16 | – |
| COC(=O)N1CCN(C(=O)Cc2cccc(Cl)c2)[C@@H]2[C@@H](N3CC[C@H](O)C3)CCC[C@@H]21.Cl | – | – | – | – | – | – | – | Kp at 1 h [5]: 0.1; Activity (Rattus norvegicus [6]): Non-Toxic; concentration at 0.25 h [7]: 1500 ng/mL; concentration at 1 h [8]: 414 ng/mL; concentration at 1 h [9]: 41.2 ng/g |
| CS(=O)(=O)N1CCN(C(=O)Cc2ccc(Cl)c(Cl)c2)[C@@H]2[C@@H](N3CCCC3)CCC[C@@H]21 [listing 1 of 2 here] | – | – | – | – | 1090 | 1.5 | 0.31 | Ki (Mu-type opioid receptor): 91 nM |
| CS(=O)(=O)N1CCN(C(=O)Cc2ccc(Cl)c(F)c2)[C@@H]2[C@@H](N3CC[C@H](O)C3)CCC[C@@H]21.Cl | – | – | – | – | – | – | – | Kp at 1 h [5]: 0.09; Activity (Rattus norvegicus [6]): Non-Toxic; concentration at 0.25 h [7]: 938 ng/mL; concentration at 1 h [8]: 437 ng/mL; concentration at 1 h [9]: 37.5 ng/g |
| CS(=O)(=O)N1CCN(C(=O)Cc2ccc(F)c(Cl)c2)[C@@H]2[C@@H](N3CC[C@H](O)C3)CCC[C@@H]21 | – | – | – | – | 575 | 5.9 | 1.7 | inhibition (INH) (Mus musculus [10]): 43%; inhibition (INH) (Mus musculus [11]): 22%; inhibition (INH) (Mus musculus [12]): 69%; inhibition (INH) (Mus musculus [16]): 56% |
| CN(C)S(=O)(=O)N1CCN(C(=O)Cc2ccc(Cl)c(Cl)c2)[C@@H]2[C@@H](N3CCCC3)CCC[C@@H]21 | 0 | 105 | – | 0 | – | – | – | – |
| COC(=O)N1CCN(C(=O)Cc2ccc(C(F)(F)F)c(Cl)c2)[C@@H]2[C@@H](N3CC[C@H](O)C3)CCC[C@@H]21 [listing 1 of 2 here] | – | – | – | – | 394 | 0.3 | 0.27 | Ki (Mu-type opioid receptor): 612 nM |
| CC(C)NC(=O)N1CCN(C(=O)Cc2ccc(Cl)c(Cl)c2)[C@@H]2[C@@H](N3CCCC3)CCC[C@@H]21 [listing 1 of 2 here] | – | – | – | – | 237 | 4.5 | 2.5 | – |
| COC(=O)N1CCN(C(=O)Cc2ccc(Cl)cc2)[C@@H]2[C@@H](N3CC[C@H](O)C3)CCC[C@@H]21.Cl | – | – | – | – | – | – | – | Kp at 1 h [5]: 0.19; Activity (Rattus norvegicus [6]): Non-Toxic; concentration at 0.25 h [7]: 1340 ng/mL; concentration at 1 h [8]: 374 ng/mL; concentration at 1 h [9]: 70.6 ng/g |
| COC(=O)N1CCN(C(=O)Cc2ccc(F)c(Cl)c2)[C@@H]2[C@@H](N3CC[C@H](O)C3)CCC[C@@H]21.Cl | – | – | – | – | – | – | – | Kp at 1 h [5]: 0.09; Activity (Rattus norvegicus [6]): Non-Toxic; concentration at 0.25 h [7]: 970 ng/mL; concentration at 1 h [8]: 465 ng/mL; concentration at 1 h [9]: 44 ng/g |
| O=C(Cc1ccc(Cl)cc1)N1CCN(S(=O)(=O)Cc2ccon2)[C@H]2CCC[C@H](N3CC[C@H](O)C3)[C@H]21 | 24 | 103 | 0 | 0 | 880 | 6.9 | 0.98 | inhibition [4]: 0% |
| CS(=O)(=O)N1CCN(C(=O)Cc2ccc(Cl)c(Cl)c2)[C@@H]2[C@@H](N3CCCC3)CCC[C@@H]21 [listing 2 of 2 here] | 0 | 106 | 0 | 5 | – | – | – | – |
| COC(=O)N1CCN(C(=O)Cc2ccc(Cl)c(F)c2)[C@@H]2[C@@H](N3CC[C@H](O)C3)CCC[C@@H]21 | – | – | – | – | 250 | 3.9 | 1.8 | inhibition (INH) (Mus musculus [10]): 37%; inhibition (INH) (Mus musculus [11]): 2%; inhibition (INH) (Mus musculus [12]): 68%; Ki (Mu-type opioid receptor): 551 nM; inhibition (INH) (Mus musculus [16]): 59% |
| CS(=O)(=O)N1CCN(C(=O)Cc2ccc(Cl)c(F)c2)[C@@H]2[C@@H](N3CC[C@H](O)C3)CCC[C@@H]21 [listing 1 of 2 here] | – | – | – | – | 394 | 8 | 2.1 | inhibition (INH) (Mus musculus [10]): 43%; inhibition (INH) (Mus musculus [11]): 33%; inhibition (INH) (Mus musculus [12]): 71%; Ki (Mu-type opioid receptor): 308 nM; inhibition (INH) (Mus musculus [16]): 46% |
| COC(=O)N1CCN(C(=O)Cc2ccc(F)c(Cl)c2)[C@@H]2[C@@H](N3CC[C@H](O)C3)CCC[C@@H]21 | – | – | – | – | 61 | 2.2 | 0.82 | inhibition (INH) (Mus musculus [10]): -4%; inhibition (INH) (Mus musculus [11]): -12%; inhibition (INH) (Mus musculus [12]): 66%; Ki (Mu-type opioid receptor): 1300 nM; inhibition (INH) (Mus musculus [16]): 58% |
| COC(=O)N1CCN(C(=O)Cc2ccc(C(F)(F)F)c(Cl)c2)[C@@H]2[C@@H](N3CC[C@H](O)C3)CCC[C@@H]21 [listing 2 of 2 here] | 30 | 100 | 0 | 5 | – | – | – | – |
| O=C(Cc1ccc(Cl)c(Cl)c1)N1CCN[C@H]2CCC[C@H](N3CCCC3)[C@H]21 | – | – | 0 | 0 | – | – | – | – |
| COC(=O)N1CCN(C(=O)Cc2ccc(Cl)cc2)[C@@H]2[C@@H](N3CC[C@H](O)C3)CCC[C@@H]21 | – | – | – | – | 451 | 14 | 0.65 | inhibition (INH) (Mus musculus [10]): 27%; inhibition (INH) (Mus musculus [11]): 24%; inhibition (INH) (Mus musculus [12]): 62%; Ki (Mu-type opioid receptor): 365 nM; inhibition (INH) (Mus musculus [16]): 27% |
| COC(=O)N1CCN(C(=O)Cc2ccc(Cl)c(Cl)c2)[C@@H]2[C@@H](N3CC[C@H](O)C3)CCC[C@@H]21 | 0 | 113 | 21 | 12 | – | – | – | – |
| CC(C)NC(=O)N1CCN(C(=O)Cc2ccc(Cl)c(Cl)c2)[C@@H]2[C@@H](N3CCCC3)CCC[C@@H]21 [listing 2 of 2 here] | 0 | 100 | 0 | 0 | – | – | – | inhibition [4]: 0% |
| CS(=O)(=O)N1CCN(C(=O)Cc2ccc(Cl)c(F)c2)[C@@H]2[C@@H](N3CC[C@H](O)C3)CCC[C@@H]21 [listing 2 of 2 here] | 12 | 105 | 16 | 0 | – | – | – | – |

Source: ChEMBL document CHEMBL4007424, “Design and Synthesis of Enantiomerically Pure Decahydroquinoxalines as Potent and Selective κ-Opioid Receptor Agonists with Anti-Inflammatory Activity in Vivo” (J Med Chem, 2017)
